Paper PMC5430744 (Scientific Reports, 2017)
Where two headings read alike, the source gives them in different places.

Columns and labels:
[1] = molecular target: T1, Smon0127 (Streptobacillus moniliformis, UniProt D1AWE4); test: UGL enzyme assay, decrease of absorbance at […] nm; assay type: biochemical
T1 construct: gene Smon_0127; recombinant Smon0127

[2] = molecular target: Smon0123 (Streptobacillus moniliformis, UniProt D1AWE0); test: X-ray crystal structure; tryptophan fluorescence titration; DSF; assay type: binding; design: gene Smon_0123; Smon0123 (N-18/C-5) in the crystal; recombinant Smon0123 in solution
Chain of Smon0123 (D1AWE0 entry or part of it): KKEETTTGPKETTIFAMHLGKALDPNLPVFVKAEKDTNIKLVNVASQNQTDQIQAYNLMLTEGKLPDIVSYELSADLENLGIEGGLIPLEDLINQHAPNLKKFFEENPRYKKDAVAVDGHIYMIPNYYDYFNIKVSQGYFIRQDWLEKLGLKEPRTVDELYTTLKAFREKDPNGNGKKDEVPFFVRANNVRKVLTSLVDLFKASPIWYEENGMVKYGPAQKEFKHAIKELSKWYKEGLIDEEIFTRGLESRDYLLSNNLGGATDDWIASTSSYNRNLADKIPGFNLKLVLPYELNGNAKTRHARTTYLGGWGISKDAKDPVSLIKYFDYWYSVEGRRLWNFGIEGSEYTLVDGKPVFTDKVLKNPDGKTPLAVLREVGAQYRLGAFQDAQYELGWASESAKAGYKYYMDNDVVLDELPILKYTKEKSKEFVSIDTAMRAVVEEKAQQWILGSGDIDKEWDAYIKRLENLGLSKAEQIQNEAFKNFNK

[3] = molecular target: T2, Smon0121-Smon0122(10xHis)/Smon0120-Smon0120 (Streptobacillus moniliformis, UniProt D1AWD7); conditions: detergent-solubilised transporter
T2 construct: gene Smon_0120
T2 sequence (D1AWD7 entry or part of it): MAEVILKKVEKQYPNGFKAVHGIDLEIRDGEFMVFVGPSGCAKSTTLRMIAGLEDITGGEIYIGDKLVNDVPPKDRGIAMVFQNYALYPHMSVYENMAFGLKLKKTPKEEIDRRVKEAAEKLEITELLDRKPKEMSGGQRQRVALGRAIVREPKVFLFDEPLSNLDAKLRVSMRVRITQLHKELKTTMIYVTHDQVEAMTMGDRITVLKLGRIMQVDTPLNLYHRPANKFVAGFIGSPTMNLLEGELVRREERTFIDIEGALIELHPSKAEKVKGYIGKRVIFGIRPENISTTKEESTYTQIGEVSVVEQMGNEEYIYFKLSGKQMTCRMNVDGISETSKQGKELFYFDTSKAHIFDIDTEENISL
T2 sequence (D1AWD8 entry or part of it, further chain): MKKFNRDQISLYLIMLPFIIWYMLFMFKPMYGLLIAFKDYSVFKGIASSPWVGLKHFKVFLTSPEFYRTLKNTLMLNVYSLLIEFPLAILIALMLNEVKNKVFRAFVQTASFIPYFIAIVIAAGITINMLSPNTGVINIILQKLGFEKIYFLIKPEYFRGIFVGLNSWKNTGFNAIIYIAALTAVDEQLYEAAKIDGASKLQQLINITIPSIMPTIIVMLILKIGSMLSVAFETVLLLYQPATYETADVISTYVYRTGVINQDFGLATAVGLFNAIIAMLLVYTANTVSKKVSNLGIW
T2 sequence (D1AWD9 entry or part of it, further chain): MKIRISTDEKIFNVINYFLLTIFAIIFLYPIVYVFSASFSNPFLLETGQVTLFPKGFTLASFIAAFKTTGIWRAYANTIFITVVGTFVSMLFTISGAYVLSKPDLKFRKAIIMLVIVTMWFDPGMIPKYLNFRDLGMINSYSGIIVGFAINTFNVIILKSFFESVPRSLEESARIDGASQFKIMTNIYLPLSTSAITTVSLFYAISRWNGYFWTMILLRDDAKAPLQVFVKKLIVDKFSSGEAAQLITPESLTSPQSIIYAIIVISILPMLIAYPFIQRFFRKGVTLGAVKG

T1 sequence (D1AWE4 entry or part of it): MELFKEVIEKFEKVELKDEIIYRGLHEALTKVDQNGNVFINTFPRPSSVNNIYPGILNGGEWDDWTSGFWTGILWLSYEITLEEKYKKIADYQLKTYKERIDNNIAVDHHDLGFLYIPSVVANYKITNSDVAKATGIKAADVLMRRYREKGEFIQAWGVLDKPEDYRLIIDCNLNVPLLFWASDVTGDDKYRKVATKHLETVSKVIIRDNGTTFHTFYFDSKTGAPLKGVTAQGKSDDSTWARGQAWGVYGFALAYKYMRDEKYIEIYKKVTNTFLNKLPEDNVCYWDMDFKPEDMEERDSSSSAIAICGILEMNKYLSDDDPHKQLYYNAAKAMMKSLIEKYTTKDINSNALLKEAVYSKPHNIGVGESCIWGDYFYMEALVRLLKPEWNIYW

| Compound | UGL enzyme assay, decrease of absorbance at 235 nm [1] [units/mg] | Kd ([2]; read-out: Kd) [nM] | phosphate release from ATP [3] | Kd [2] |
| --- | --- | --- | --- | --- |
| CC(=O)N[C@H]1C(O)O[C@H](CO)[C@H](O)[C@@H]1O[C@@H]1OC(C(=O)O)=C[C@H](O)[C@H]1O (stereo partly shown) [CΔ0S] | 4.46 | 635 ± 122 |  |  |
| CC(=O)N[C@H]1C(O)O[C@H](CO)[C@@H](O)[C@@H]1O[C@@H]1OC(C(=O)O)=C[C@H](O)[C@H]1O (stereo partly shown) [ΔHA] | 2.26 |  |  |  |
| CC(=O)N[C@H]1C(O)O[C@H](CO)[C@H](OS(=O)(=O)O)[C@@H]1O[C@@H]1OC(C(=O)O)=C[C@H](O)[C@H]1O (stereo partly shown) [CΔ4S] | 0.342 |  |  |  |
| Nc1ncnc2c1ncn2[C@@H]1O[C@H](COP(=O)(O)OP(=O)(O)OP(=O)(O)O)[C@@H](O)[C@H]1O [ATP] |  |  | in the soluble form with detergents exhibited ATPase activity |  |
| CC(=O)N[C@H]1C(O)O[C@H](COS(=O)(=O)O)[C@H](O)[C@@H]1O[C@@H]1OC(C(=O)O)=C[C@H](O)[C@H]1O (stereo partly shown) [CΔ6S] | 0.272 |  |  | 5GX6 for Smon0123/C∆4S, 5GX7 for Smon0123/C∆6S |
